Test results published in publication PMC3092583, “Enzyme Mechanism and Slow-Onset Inhibition of Plasmodium falciparum Enoyl-Acyl Carrier Protein Reductase by an Inorganic Complex” (2011).
Like-named read-outs stand apart in the source and are kept apart here.

Columns and labels:
[1] = target: T1, P. falciparum ENR (PfENR), enoyl-acyl carrier protein reductase (Plasmodium falciparum, UniProt Q9BH77); test: biochemical; assay type: binding
T1 construct: gene FabI
T1 sequence (Q9BH77 22-432): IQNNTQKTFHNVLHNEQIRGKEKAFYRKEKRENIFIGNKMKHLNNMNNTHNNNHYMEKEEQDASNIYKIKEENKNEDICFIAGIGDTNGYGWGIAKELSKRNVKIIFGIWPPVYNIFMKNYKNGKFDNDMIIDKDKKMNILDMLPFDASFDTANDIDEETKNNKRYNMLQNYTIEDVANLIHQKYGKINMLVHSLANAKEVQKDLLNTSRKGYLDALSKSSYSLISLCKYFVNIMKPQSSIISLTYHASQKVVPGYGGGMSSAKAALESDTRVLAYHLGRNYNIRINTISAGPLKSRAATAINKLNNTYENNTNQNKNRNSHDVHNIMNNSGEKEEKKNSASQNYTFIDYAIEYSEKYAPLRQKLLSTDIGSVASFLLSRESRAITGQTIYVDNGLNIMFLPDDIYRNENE

[2] = target: T1, P. falciparum ENR (PfENR), enoyl-acyl carrier protein reductase; test: biochemical; assay type: binding; remark: listed apart in the source
[3] = substrate: C/C=C/C(=O)SCCNC(=O)CCNC(=O)[C@H](O)C(C)(C)COP(=O)(O)OP(=O)(O)OC[C@H]1O[C@@H](n2cnc3c(N)ncnc32)[C@H](O)[C@@H]1OP(=O)(O)O; test: steady-state initial velocity kinetics (KM) with purified enzyme; no fluorescence change with free enzyme; assay type: biochemical, Plasmodium falciparum; conditions: NADH proposed to bind to a modified form of the enzyme (F) after NAD+ release

Molecule `CCCC(=O)SCCNC(=O)CCNC(=O)[C@H](O)C(C)(C)COP(=O)(O)OP(=O)(O)OC[C@H]1O[C@@H](n2cnc3c(N)ncnc32)[C@H](O)[C@@H]1OP(=O)(O)O` [butyryl-CoA] has a Kd [1] of 1.15 mM.

`NC(=O)C1=CN([C@@H]2O[C@H](COP(=O)(O)OP(=O)(O)OC[C@H]3O[C@@H](n4cnc5c(N)ncnc54)[C@H](O)[C@@H]3O)[C@@H](O)[C@H]2O)C=CC1` [NADH] gave a Kd [2] of 398 µM.

B1: P. falciparum ENR (PfENR), enoyl-acyl carrier protein reductase (Plasmodium falciparum) (protein)
chain: T1 sequence (Q9BH77 22-432)
Work on B1 yielded a Km [3] of 63 µM.
